Assays:
[1] = Autosampler stability of ready for injection samples; type: physicochemical, human
[2] = Freeze-thaw stability in spiked pooled human plasma; type: physicochemical

| SMILES | Autosampler (24h, 4°C) Accuracy [%] ([1]; validation standard 2xLLOV) | Autosampler (72h, 4°C) Accuracy [%] ([1]; validation standard 2xLLOV) | Autosampler (24h, 4°C) Accuracy [%] ([1]; validation standard LLOV) | Autosampler (72h, 4°C) Accuracy [%] ([1]; validation standard LLOV) | Autosampler (24h, 4°C) Accuracy [%] ([1]; validation standard MOV) | Autosampler (72h, 4°C) Accuracy [%] ([1]; validation standard MOV) | Autosampler (24h, 4°C) Accuracy [%] ([1]; validation standard ULOV) | Autosampler (72h, 4°C) Accuracy [%] ([1]; validation standard ULOV) | Freeze-Thaw Accuracy [%] ([2]; validation standard 2xLLOV) | Freeze-Thaw Accuracy [%] ([2]; validation standard LLOV) | Freeze-Thaw Accuracy [%] ([2]; validation standard MOV) | Freeze-Thaw Accuracy [%] ([2]; validation standard ULOV) |
| --- | --- | --- | --- | --- | --- | --- | --- | --- | --- | --- | --- | --- |
| C[C@]12CC[C@H](O)CC1=CC[C@@H]1[C@@H]2CC[C@]2(C)C(c3cccnc3)=CC[C@@H]12 [Abiraterone] | 98.9% | 97.9% | 90.8% | 94.9% | 104.6% | 101.6% | 100.2% | 104.1% | 104.5% | 105.9% | 101.5% | 100.2% |
| CN(C)C/C=C/C(=O)Nc1cc2c(Nc3ccc(F)c(Cl)c3)ncnc2cc1O[C@H]1CCOC1 [Afatinib] | 103.2% | 99.3% | 91.7% | 83.0% | 102.6% | 103.4% | 98.7% | 99.3% | 100.0% | 93.5% | 96.1% | 95.0% |
| O=C1CN2Cc3c(ccc(Cl)c3Cl)N=C2N1 [Anagrelide] | 113.2% | 106.1% | 111.7% | 110.5% | 104.6% | 96.8% | 101.8% | 98.2% | 96.5% | 92.8% | 93.8% | 99.6% |
| Cn1cnc2c(F)c(Nc3ccc(Br)cc3F)c(C(=O)NOCCO)cc21 [Binimetinib] | 104.7% | 101.6% | 103.1% | 98.1% | 105.0% | 95.8% | 102.1% | 102.4% | 92.6% | 93.8% | 100.1% | 105.2% |
| COc1cc2nccc(Oc3ccc(NC(=O)C4(C(=O)Nc5ccc(F)cc5)CC4)cc3)c2cc1OC [Cabozantinib] | – | 103.4% | 92.0% | 94.0% | 105.6% | 103.5% | 98.7% | – | 99.6% | 90.2% | 102.2% | 95.0% |
| O=C(c1ccc(F)c(F)c1Nc1ccc(I)cc1F)N1CC(O)([C@@H]2CCCCN2)C1 [Cobimetinib] | 100.3% | 100.8% | 94.6% | 93.0% | 105.2% | 103.1% | 102.5% | 107.2% | 98.6% | 98.3% | 97.3% | 96.3% |
| C[C@@H](Oc1cc(-c2cnn(C3CCNCC3)c2)cnc1N)c1c(Cl)ccc(F)c1Cl [Crizotinib] | 105.2% | 103.5% | 88.1% | 86.1% | 108.4% | 103.8% | 96.5% | 94.7% | 94.8% | 72.2% | 102.4% | 92.4% |
| CC(C)(C)c1nc(-c2cccc(NS(=O)(=O)c3c(F)cccc3F)c2F)c(-c2ccnc(N)n2)s1 [Dabrafenib] | 97.9% | 99.3% | 93.5% | 93.1% | 102.1% | 99.8% | 100.7% | 101.4% | 97.8% | 93.9% | 99.0% | 97.6% |
| COc1cc2ncnc(Nc3ccc(F)c(Cl)c3)c2cc1NC(=O)/C=C/CN1CCCCC1 [Dacomitinib] | 102.5% | 99.5% | 93.3% | 92.3% | 104.5% | 100.5% | 98.4% | 98.0% | 92.5% | 89.8% | 95.9% | 96.3% |
| Cc1nc(Nc2ncc(C(=O)Nc3c(C)cccc3Cl)s2)cc(N2CCN(CCO)CC2)n1 [Dasatinib] | 102.9% | 106.3% | 116.5% | 114.9% | 102.8% | 99.0% | 102.6% | 101.0% | 99.1% | 108.8% | 99.1% | 102.2% |
| COC(=O)N[C@@H](C)CNc1nccc(-c2cn(C(C)C)nc2-c2cc(Cl)cc(NS(C)(=O)=O)c2F)n1 [Encorafenib] | 102.4% | 102.6% | 87.7% | 98.2% | 112.5% | 110.5% | 100.5% | 102.4% | 94.9% | 90.4% | 101.4% | 98.7% |
| C#Cc1cccc(Nc2ncnc3cc(OCCOC)c(OCCOC)cc23)c1 [Erlotinib] | 102.3% | 98.1% | – | 103.9% | 103.3% | 98.3% | 103.4% | 102.9% | 100.9% | 113.3% | 100.4% | 102.0% |
| COc1cc2ncnc(Nc3ccc(F)c(Cl)c3)c2cc1OCCCN1CCOCC1 [Gefitinib] | 102.3% | 98.5% | 91.6% | 90.7% | 105.6% | 102.2% | 96.7% | 97.0% | 97.6% | 92.4% | 97.8% | 97.1% |
| Cc1ccc(NC(=O)c2ccc(CN3CCN(C)CC3)cc2)cc1Nc1nccc(-c2cccnc2)n1 [Imatinib] | 115.2% | 116.1% | 102.3% | 103.7% | 108.3% | 101.7% | 95.3% | 95.2% | 98.5% | 100.6% | 96.7% | 96.3% |
| CS(=O)(=O)CCNCc1ccc(-c2ccc3ncnc(Nc4ccc(OCc5cccc(F)c5)c(Cl)c4)c3c2)o1 [Lapatinib] | 99.4% | 102.1% | 92.7% | 94.4% | 103.2% | 101.5% | 99.7% | 98.8% | 96.0% | 86.5% | 102.3% | 94.7% |
| O=C(Nc1cnn2ccc(N3CCC[C@@H]3c3cc(F)ccc3F)nc12)N1CC[C@H](O)C1 [Larotrectinib] | 87.6% | 100.3% | 79.4% | 75.5% | 104.6% | 101.2% | 102.3% | 104.4% | 100.6% | 97.9% | 100.3% | 102.3% |
| Nc1cccc2c1CN(C1CCC(=O)NC1=O)C2=O (stereo not drawn) [Lenalidomide] | 117.5% | 109.8% | 80.7% | 95.6% | 107.0% | 100.0% | 100.8% | 98.9% | 104.4% | 91.0% | 97.3% | 96.8% |
| COc1cc2nccc(Oc3ccc(NC(=O)NC4CC4)c(Cl)c3)c2cc1C(N)=O [Lenvatinib] | 102.4% | 97.9% | 110.0% | 103.7% | 100.6% | 98.6% | 102.6% | 102.7% | 102.5% | 111.6% | 98.4% | 103.0% |
| CO[C@@H]1[C@H](N(C)C(=O)c2ccccc2)C[C@H]2O[C@]1(C)n1c3ccccc3c3c4c(c5c6ccccc6n2c5c31)C(=O)NC4 [Midostaurin] | 103.3% | 103.0% | 109.7% | 108.2% | 101.4% | 103.7% | 102.8% | 97.9% | 95.9% | 100.6% | 94.6% | 97.4% |
| CCOc1cc2ncc(C#N)c(Nc3ccc(OCc4ccccn4)c(Cl)c3)c2cc1NC(=O)/C=C/CN(C)C [Neratinib] | 95.7% | 100.1% | 75.2% | 73.8% | 103.1% | 100.5% | 93.3% | 96.0% | 82.2% | 64.7% | 88.9% | 87.2% |

Source: publication PMC8699473, “An Easily Expandable Multi-Drug LC-MS Assay for the Simultaneous Quantification of 57 Oral Antitumor Drugs in Human Plasma” (Cancers, 2021)
